Inconclusive results and toxic doses are left out.

The assay deals with BDF1 mice, L1210 leukemia sc, survival T/C. Description: NCI In Vivo Anticancer Drug Screen. Data for tumor model L1210 Leukemia (subcutaneous) in B6D2F1 (BDF1) mice. The settings on record: higher = longer survival. How it is done: The antitumor activity of compounds was measured in mice bearing transplantable tumors. Survival or tumor size were measured and the results are expressed as the measurement made in the treated group (T) divided by the measurement made in the vehicle treated control group (C). The tumor model used in this assay is L1210 Leukemia (subcutaneous) in B6D2F1 (BDF1) mice

The mark [1] stands for this setting: endpoint: median survival time, dose: 39.0 mg/kg/injection, schedule: Q01DX Z (sc), vehicle: methylcellulose (MC).
Setting [2] is: endpoint: median survival time, dose: 65.0 mg/kg/injection, schedule: Q01DX Z (sc), vehicle: methylcellulose (MC).
Setting [3] is: endpoint: median survival time, dose: 108.0 mg/kg/injection, schedule: Q01DX Z (sc), vehicle: methylcellulose (MC).
Setting [4] is: endpoint: median survival time, dose: 180.0 mg/kg/injection, schedule: Q01DX Z (sc), vehicle: methylcellulose (MC).
The mark [5] stands for this setting: endpoint: median survival time, dose: 8.4 mg/kg/injection, schedule: Q01DX Z (sc), vehicle: methylcellulose (MC).
The mark [6] stands for this setting: endpoint: median survival time, dose: 14.0 mg/kg/injection, schedule: Q01DX Z (sc), vehicle: methylcellulose (MC).
Where [7] appears, read: endpoint: median survival time, dose: 23.0 mg/kg/injection, schedule: Q01DX Z (sc), vehicle: methylcellulose (MC).

Consider `OC(CBr)C(O)C(O)C(O)CBr` (configuration not stated), for which the T/C (endpoint: median survival time, dose: 108.0 mg/kg/injection, schedule: Q01DX009 (ip), vehicle: steriod suspending solution) is 105 % of control; the T/C (endpoint: median survival time, dose: 108.0 mg/kg/injection, schedule: Q01DX009 (sc), vehicle: steriod suspending solution) was 100 % of control; the T/C (endpoint: median survival time, dose: 180.0 mg/kg/injection, schedule: Q01DX009 (ip), vehicle: steriod suspending solution) is 116 % of control; the T/C (endpoint: median survival time, dose: 180.0 mg/kg/injection, schedule: Q01DX009 (sc), vehicle: steriod suspending solution) is 111 % of control; the T/C (endpoint: median survival time, dose: 180.0 mg/kg/injection, schedule: Q04DX003 (ip), vehicle: steriod suspending solution) was 100 % of control; the T/C (endpoint: median survival time, dose: 180.0 mg/kg/injection, schedule: Q04DX003 (sc), vehicle: steriod suspending solution) was 105 % of control. Further, the T/C (endpoint: median survival time, dose: 300.0 mg/kg/injection, schedule: Q01DX009 (ip), vehicle: steriod suspending solution) was 122 % of control; the T/C (endpoint: median survival time, dose: 300.0 mg/kg/injection, schedule: Q01DX009 (sc), vehicle: steriod suspending solution) is 116 % of control; the T/C (endpoint: median survival time, dose: 300.0 mg/kg/injection, schedule: Q04DX003 (ip), vehicle: steriod suspending solution) is 111 % of control; the T/C (endpoint: median survival time, dose: 300.0 mg/kg/injection, schedule: Q04DX003 (sc), vehicle: steriod suspending solution) is 111 % of control; the T/C (endpoint: median survival time, dose: 500.0 mg/kg/injection, schedule: Q01DX009 (sc), vehicle: steriod suspending solution) was 155 % of control; the T/C (endpoint: median survival time, dose: 500.0 mg/kg/injection, schedule: Q04DX003 (ip), vehicle: steriod suspending solution) is 100 % of control. The T/C is 105 % of control (endpoint: median survival time, dose: 500.0 mg/kg/injection, schedule: Q04DX003 (sc), vehicle: steriod suspending solution); 122 % of control (endpoint: median survival time, dose: 833.0 mg/kg/injection, schedule: Q04DX003 (ip), vehicle: steriod suspending solution); 122 % of control (endpoint: median survival time, dose: 833.0 mg/kg/injection, schedule: Q04DX003 (sc), vehicle: steriod suspending solution); 111 % of control (endpoint: median survival time, dose: 1388.0 mg/kg/injection, schedule: Q01DX009 (sc), vehicle: other); 110 % of control (endpoint: median survival time, dose: 1388.0 mg/kg/injection, schedule: Q01DX009 (sc), vehicle: steriod suspending solution); 110 % of control (endpoint: median survival time, dose: 1388.0 mg/kg/injection, schedule: Q01DX015 (sc), vehicle: other). For the same compound, the T/C (endpoint: median survival time, dose: 1388.0 mg/kg/injection, schedule: Q01DX015 (sc), vehicle: steriod suspending solution) was 110 % of control.

On to `CS(=O)(=O)OCC(=O)NCCNC(=O)COS(C)(=O)=O`, for which the T/C is 105 % of control under setting [1]; 105 % of control under setting [2]; 110 % of control under setting [3]; 110 % of control under setting [4]; 115 % of control (endpoint: median survival time, dose: 300.0 mg/kg/injection, schedule: Q01DX Z (sc), vehicle: methylcellulose (MC)); 100 % of control (endpoint: median survival time, dose: 500.0 mg/kg/injection, schedule: Q01DX Z (sc), vehicle: methylcellulose (MC)).

Regarding `Oc1cc(CN(CCCl)CCCl)c(O)cc1CN(CCCl)CCCl`, the T/C is 100 % of control (endpoint: median survival time, dose: 3.0 mg/kg/injection, schedule: Q01DX Z (sc), vehicle: methylcellulose (MC)); 105 % of control (endpoint: median survival time, dose: 5.0 mg/kg/injection, schedule: Q01DX Z (sc), vehicle: methylcellulose (MC)); 110 % of control under setting [5]; 100 % of control under setting [6]; 105 % of control under setting [7]; 110 % of control under setting [1]. In addition, the T/C was 110 % of control under setting [2], 120 % of control under setting [3] and 120 % of control under setting [4].

On to `CNC=O`, for which the T/C is, setting by setting: (endpoint: median survival time, dose: 112.0 mg/kg/injection, schedule: Q01DX Z (sc), vehicle: saline) 100 % of control; (endpoint: median survival time, dose: 187.0 mg/kg/injection, schedule: Q01DX Z (sc), vehicle: saline) 104 % of control; (endpoint: median survival time, dose: 311.0 mg/kg/injection, schedule: Q01DX Z (sc), vehicle: saline) 116 % of control.

On to `O=C(Nc1ccc(NC(=O)Nc2cccc(C3=NCCN3)c2)cc1)Nc1cccc(C2=NCCN2)c1`, for which the T/C reads like this: (endpoint: median survival time, dose: 23.0 mg/kg/injection, schedule: Q01DX Z (sc), vehicle: saline) 100 % of control; (endpoint: median survival time, dose: 39.0 mg/kg/injection, schedule: Q01DX Z (sc), vehicle: saline) 110 % of control; (endpoint: median survival time, dose: 65.0 mg/kg/injection, schedule: Q01DX Z (sc), vehicle: saline) 100 % of control; (endpoint: median survival time, dose: 108.0 mg/kg/injection, schedule: Q01DX Z (sc), vehicle: saline) 95 % of control; (endpoint: median survival time, dose: 180.0 mg/kg/injection, schedule: Q01DX Z (sc), vehicle: saline) 100 % of control; (endpoint: median survival time, dose: 300.0 mg/kg/injection, schedule: Q01DX Z (sc), vehicle: saline) 100 % of control.

Turning to `O=C(O)CCCc1ccc(N(CCCl)CCCl)cc1`, the T/C under setting [5] is 100 % of control, the T/C under setting [6] is 100 % of control, the T/C under setting [7] is 100 % of control and the T/C under setting [1] is 110 % of control.

As to `CN(Cc1cnc2nc(N[Si](C)(C)C)nc(N[Si](C)(C)C)c2n1)c1ccc(C(=O)NC(CCC(=O)O[Si](C)(C)C)C(=O)O[Si](C)(C)C)cc1` (configuration not stated), the T/C (endpoint: mean survival time, dose: 1.0 mg/kg/injection, schedule: Q01DX009 (ip), vehicle: Klucel (hydroxypropylcellulose) (HPC)) is 150 % of control; the T/C (endpoint: mean survival time, dose: 2.0 mg/kg/injection, schedule: Q01DX009 (ip), vehicle: Klucel (hydroxypropylcellulose) (HPC)) is 169 % of control; the T/C (endpoint: mean survival time, dose: 4.0 mg/kg/injection, schedule: Q01DX009 (ip), vehicle: Klucel (hydroxypropylcellulose) (HPC)) is 176 % of control; the T/C (endpoint: mean survival time, dose: 8.0 mg/kg/injection, schedule: Q01DX009 (ip), vehicle: Klucel (hydroxypropylcellulose) (HPC)) is 169 % of control; the T/C (endpoint: mean survival time, dose: 8.0 mg/kg/injection, schedule: Q04DX003 (ip), vehicle: Klucel (hydroxypropylcellulose) (HPC)) is 156 % of control; the T/C (endpoint: mean survival time, dose: 16.0 mg/kg/injection, schedule: Q01DX009 (ip), vehicle: Klucel (hydroxypropylcellulose) (HPC)) was 119 % of control. For the same compound, the T/C is 160 % of control (endpoint: mean survival time, dose: 32.0 mg/kg/injection, schedule: Q04DX003 (ip), vehicle: Klucel (hydroxypropylcellulose) (HPC)) and 160 % of control (endpoint: mean survival time, dose: 64.0 mg/kg/injection, schedule: Q04DX003 (ip), vehicle: Klucel (hydroxypropylcellulose) (HPC)).

Consider `COc1cc([C@@H]2c3cc4c(cc3[C@H](OC(=O)CCCC(=O)O)[C@H]3COC(=O)[C@H]23)OCO4)cc(OC)c1OC`, for which the T/C reads like this: (endpoint: median survival time, dose: 5.0 mg/kg/injection, schedule: Q01DX Z (sc), vehicle: water) 100 % of control; (endpoint: median survival time, dose: 8.4 mg/kg/injection, schedule: Q01DX Z (sc), vehicle: water) 109 % of control; (endpoint: median survival time, dose: 14.0 mg/kg/injection, schedule: Q01DX Z (sc), vehicle: water) 113 % of control; (endpoint: median survival time, dose: 23.0 mg/kg/injection, schedule: Q01DX Z (sc), vehicle: water) 113 % of control; (endpoint: median survival time, dose: 39.0 mg/kg/injection, schedule: Q01DX Z (sc), vehicle: water) 118 % of control; (endpoint: median survival time, dose: 65.0 mg/kg/injection, schedule: Q01DX Z (sc), vehicle: water) 118 % of control. Moreover, the T/C (endpoint: median survival time, dose: 108.0 mg/kg/injection, schedule: Q01DX Z (sc), vehicle: water) was 118 % of control.
